Read-outs that look alike come from different tables or passages of the source.
Legend:
[1] = decomposition product; cited from earlier work
Aspergillus funigatus = test: efficacy against Aspergillus funigatus; format: cell-based
Method: (§1) The incorporation of the sugar group into the aminoacridine molecule modifies its properties in an unforeseen way. Thus e.g. 3,6-diamino-acridine and 3,6-diamino-10-methyl-acridine are efficacious in concentrations of 50 μg/ml against microorganisme (Bacillus subtilis, Salmonalla typhy-murium, Proteus vulgaris, Escherichia coli, Shigella flexneri etc.) while the diglucoside of the 3,6-diamino-acridine is inefficacious also in concentrations of 500 μg/ml against the named microorganisms. Inversely the aminoacridines are inefficacious against fungi while the diglucoside of 3,6-diamino-10-methyl-acridine is efficacious e.g. against Aspergillus funigatus and Aspergillus niger.

[2] = test system: ascites tumor according to Ehrlich; test: test with the Ehrlich-carcinoma in mice; format: in vivo
Method: A test with the Ehrlich-carcinoma was carried out with 50 mice each as test group and as K control group. The animals were intraperitoneally infected with 5×10^6 cells each of the ascites tumor according to Ehrlich. On the first, second and third day after the infection half of the mice were treated with 12.5 mg/kg.d of 10-methyl-proflavine-diglucoside.

Ehrlich tumor = test: inhibition and prevention of the Ehrlich tumor in mice and rats; format: in vivo
Aspergillus niger = test: efficacy against Aspergillus niger; format: cell-based
Method: as §1

[3] = toxicity measurements at CFLP-mice (LD50); settings: mouse, in vivo, female CFLP-mice
Excerpt: By the incorporation of one or more sugar residue(s) the toxicity of the compounds is influenced positively, too. The results of toxicity measurements carried out at CFLP-mice (female) (Litchfield, J. T. and Wilcoxon F.: J. Pharmacol. 96, 99 (1949) are summarized in the following Table.

[4] = literature; cited from earlier work
Ehrlich ascites tumor = settings: Schumelfelder et al., Z. Krebsforsch, 63, 129 (1959); cited from earlier work
wounds = settings: disinfecting of wounds, World War II; cited from earlier work
[5] = known; cited from earlier work

| Compound | LD50 ([3]; ip, read-out: LD50 i.p.) [mg/kg] | LD50 ([3]; iv, read-out: LD50 i.v.) [mg/kg] | mutation of certain objects [4] | healing of the wound (wounds) | tissue necrosis (wounds) | antimicrobial effect [5] | other results |
| --- | --- | --- | --- | --- | --- | --- | --- |
| O=c1c2ccccc2[nH]c2cccc([N+](=O)[O-])c12 [1-nitroacridone] | – | – | – | – | – | – | biological activity [1]: biologically inactive |
| C[n+]1c2cc(N[C@@H]3O[C@H](CO)[C@@H](O)[C@H](O)[C@H]3O)ccc2cc2ccc(N[C@@H]3O[C@H](CO)[C@@H](O)[C@H](O)[C@H]3O)cc21.[Cl-] [3,6-Di-(β-D-glucopyranosyl-amino)-10-N-methyl-acridinium chloride] | 210 | 37 | – | – | – | – | efficacy against fungi (Aspergillus funigatus): efficacious; Change of body weight in g on the 7th day ([2]; 12.5 mg/kg.d on first, second and third day after infection, 7th day): +1.2 g; Change of body weight in g on the 12th day ([2]; 12.5 mg/kg.d on first, second and third day after infection, 12th day): +2.0 g; Change of body weight in g on the 21st day ([2]; 12.5 mg/kg.d on first, second and third day after infection, 21st day): +2.6 g; treated animals still living on the 40th day ([2]; 12.5 mg/kg.d, 40th day): all treated animals were still living; Average surviving time ([2]; 12.5 mg/kg.d, observation stopped on the 40th day): 40.0 days; state of the animal concerning its condition (Ehrlich tumor; 6.25 mg/kg-12.5 mg/kg i.p.): improves the state of the animal concerning its condition; development of the Ehrlich tumor (Ehrlich tumor; test animals: mice and rats): inhibits the development of the Ehrlich tumor; formation of the Ehrlich tumor (Ehrlich tumor; test animals: mice and rats): prevents its formation; efficacy against fungi (Aspergillus niger): efficacious |
| C[n+]1c2cc(N)ccc2cc2ccc(N)cc21 [3,6-diamino-10-methyl-acridine] | 60 | 14 | can cause mutation of certain objects | slowed down the healing of the wound | caused tissue necrosis | exert a certain antimicrobial effect | growth of the Ehrlich ascites tumor (Ehrlich ascites tumor): inhibited |
| Nc1ccc2cc3ccc(N)cc3nc2c1 [3,6-diamino-acridine, 3,6-diaminoacridine] | 84 | 65 | can cause mutation of certain objects | slowed down the healing of the wound | caused tissue necrosis | exert a certain antimicrobial effect | – |
| OC[C@H]1O[C@@H](Nc2ccc3cc4ccc(N[C@@H]5O[C@H](CO)[C@@H](O)[C@H](O)[C@H]5O)cc4nc3c2)[C@H](O)[C@@H](O)[C@@H]1O [3,6-diamino-acridine-diglucoside, 3,6-Di-(β-Di-glucopyranosyl-amino)-acridine] | 280 | 87 | – | – | – | – | – |
